Activity calls are given as the source filed them. The calls are words filed in the database; no cut-off is given here.
Experiments:
[1] = biological target: T1, Peroxisome proliferator-activated receptor gamma (Homo sapiens) (UniProt P37231); assay: Binding affinity to PPARgamma (unknown origin) assessed as change in binding free energy; details: filed as modulator
T1 sequence (whole entry): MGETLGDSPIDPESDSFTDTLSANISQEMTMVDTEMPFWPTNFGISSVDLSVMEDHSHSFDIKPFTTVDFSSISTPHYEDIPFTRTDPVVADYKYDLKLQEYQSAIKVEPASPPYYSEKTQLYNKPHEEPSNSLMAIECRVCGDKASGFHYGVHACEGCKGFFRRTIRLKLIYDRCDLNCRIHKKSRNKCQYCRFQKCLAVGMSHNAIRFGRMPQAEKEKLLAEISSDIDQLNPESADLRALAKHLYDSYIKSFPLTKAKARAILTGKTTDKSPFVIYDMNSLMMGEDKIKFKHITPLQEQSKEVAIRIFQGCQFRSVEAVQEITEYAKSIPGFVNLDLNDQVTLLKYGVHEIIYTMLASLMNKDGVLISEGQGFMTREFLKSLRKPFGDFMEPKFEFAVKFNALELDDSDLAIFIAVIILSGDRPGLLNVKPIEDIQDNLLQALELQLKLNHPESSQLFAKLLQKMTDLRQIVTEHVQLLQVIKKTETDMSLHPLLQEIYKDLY

[2] = Lipophilicity, logP of compound; assay type: physicochemical; details: octanol/water
3T3-L1 [3] = assay: Upregulation of PPARgamma mRNA expression in adipocyte differentiated mouse 3T3-L1 cells at 10 uM measured after 24 hrs; assay type: functional, cell-based
3T3-L1 [4] = assay: Upregulation of PPARalpha mRNA expression in adipocyte differentiated mouse 3T3-L1 cells assessed as fold increase in PPARalpha expression at 10 uM measured after 24 hrs; assay type: functional
3T3-L1 [5] = assay: Upregulation of GLUT-4 mRNA expression in adipocyte differentiated mouse 3T3-L1 cells at 10 uM measured after 24 hrs; assay type: functional, cell-based
Mus musculus [6] = assay: Antidiabetic activity in nicotinamide and streptozotocin induced hyperglycemic mouse model assessed as reduction in blood glucose at 100 mg/kg, IG administered as single dose and measured after 7 hrs; assay type: functional; set-up: scale not given: the % may be the effect or the level left
Mus musculus [7] = assay: Antidiabetic activity in nicotinamide and streptozotocin induced hyperglycemic mouse model assessed as reduction in triglyceride level at 100 mg/kg, IG administered as single dose and measured on day 0 (reference value: 92 +/- 10 mg/dl); assay type: functional
Mus musculus [8] = assay: Antidiabetic activity in nicotinamide and streptozotocin induced hyperglycemic mouse model assessed as reduction in triglyceride level at 100 mg/kg, IG administered as single dose and measured on day 1 (reference value: 88 +/- 6 mg/dl); assay type: functional
Mus musculus [9] = assay: Antidiabetic activity in nicotinamide and streptozotocin induced hyperglycemic mouse model assessed as reduction in triglyceride level at 100 mg/kg, IG administered as single dose and measured on day 3 (reference value: 95 +/- 5 mg/dl); assay type: functional
Mus musculus [10] = assay: Antidiabetic activity in nicotinamide and streptozotocin induced hyperglycemic mouse model assessed as reduction in triglyceride level at 100 mg/kg, IG administered as single dose and measured on day 5 (reference value: 93 +/- 10 mg/dl); assay type: functional
3T3-L1 [11] = assay: Cytotoxicity against adipocyte differentiated mouse 3T3-L1 cells at 100 uM by MTT assay; assay type: toxicity, cell-based; details: 3t3-l1, 100 µM
3T3-L1 [12] = assay: Upregulation of PPARgamma mRNA expression in adipocyte differentiated mouse 3T3-L1 cells assessed as fold increase in PPARgamma expression at 10 uM measured after 24 hrs; assay type: functional

| Structure (SMILES) | deltaG [1] | logP [2] | Activity (3T3-L1 [5]) | Activity (Mus musculus [7]) | Activity (Mus musculus [8]) | Activity (Mus musculus [9]) | Activity (Mus musculus [10]) | Activity (3T3-L1 [11]) | other results |
| --- | --- | --- | --- | --- | --- | --- | --- | --- | --- |
| N#Cc1ccccc1-c1ccc(COc2ccc(/C=C3\SC(=O)NC3=O)cc2)cc1 | -7.84 | 4.94 | – | – | – | – | – | – | – |
| O=C1N=C(O)S/C1=C\c1ccc(OCc2ccccc2)cc1 | -7.43 | – | Active | 97 mg/dL | 70 mg/dL | 69 mg/dL | 62 mg/dL | – | Activity (3T3-L1 [3]): Active; fold change (FC) (3T3-L1 [4]): 2; Activity (Mus musculus [6]): 38% |
| N#Cc1ccccc1COc1ccc(/C=C2\SC(=O)NC2=O)cc1 | – | – | – | – | – | – | – | Non-Toxic | Activity (3T3-L1 [3]): Active |
| O=C1NC(=O)/C(=C/c2ccc(OCc3ccccc3)cc2)S1 | – | 3 | – | – | – | – | – | Non-Toxic | – |
| O=C1NC(=O)/C(=C/c2ccc(OCc3ccc(Cl)cc3)cc2)S1 | -7.69 | 3.53 | Active | 90 mg/dL | 75 mg/dL | 77 mg/dL | 75 mg/dL | Non-Toxic | fold change (FC) (3T3-L1 [12]): 5; fold change (FC) (3T3-L1 [4]): 2; Activity (Mus musculus [6]): -68% |
| COc1cc(/C=C2\SC(=O)NC2=O)ccc1OCc1ccc(C)cc1 | – | – | – | – | – | – | – | Non-Toxic | – |
| COc1cc(/C=C2\SC(=O)NC2=O)ccc1OCc1ccc(-c2ccccc2C#N)cc1 | – | – | Active | – | – | – | – | Non-Toxic | – |
| COc1cc(/C=C2\SC(=O)NC2=O)ccc1OCc1ccccc1C#N | – | – | – | – | – | – | – | Non-Toxic | – |
| Cc1ccc(COc2ccc(/C=C3\SC(O)=NC3=O)cc2)cc1 | -7.72 | 3.33 | Active | 93 mg/dL | 88 mg/dL | 74 mg/dL | 70 mg/dL | Non-Toxic | fold change (FC) (3T3-L1 [12]): 5; fold change (FC) (3T3-L1 [4]): 2; Activity (Mus musculus [6]): 82% |
| CC(C)OC(=O)C(C)(C)Oc1ccc(C(=O)c2ccc(Cl)cc2)cc1 [FENOFIBRATE] | – | – | – | 88 mg/dL | 65 mg/dL | 62 mg/dL | 58 mg/dL | – | – |
| COc1cc(/C=C2\SC(=O)NC2=O)ccc1OCc1ccc(Cl)cc1 | – | – | Active | – | – | – | – | Non-Toxic | Activity (3T3-L1 [3]): Active |
| COc1cc(/C=C2\SC(=O)NC2=O)ccc1OCc1ccccc1 | – | – | Active | – | – | – | – | Non-Toxic | – |

Reference: ChEMBL document CHEMBL5126570, “Synthesis, in vitro, in silico and in vivo hypoglycemic and lipid-lowering effects of 4-benzyloxy-5-benzylidene-1,3-thiazolidine-2,4-diones mediated by dual PPAR α/γ modulation” (Bioorg Med Chem Lett, 2022)
